{"source": "patent US12168664B2", "about": "“Triazolopyrimidines, their preparation and use” (THE TRUSTEES OF COLUMBIA UNIVERSITY IN THE CITY OF NEW YORK, priority 2018, dated 2024)", "key": {"human RBP4": {"molecular_target": "human RBP4 (Homo sapiens (Human), UniProt P02753)", "test": "SPA binding assay for RBP4 (scintillation proximity, 3H-retinol displacement)", "settings": "10 nM 3H-retinol, 50 nM biotinylated RBP4", "description": "Scintillation Proximity RBP4 Binding Assay\nUntagged human RBP4 purified from the urine of tubular proteinuria patients was purchased from Fitzgerald Industries International. It was biotinylated using the EZ-Link Sulfo-NHS-LC-Biotinylation kit from Pierce following the manufacturer's recommendations. […] Nonspecific binding was determined in the presence of 20 μM of unlabeled retinol. The reaction mix was assembled in the dark under dim red light. The plates were sealed with clear tape (TopSeal-A: 96-well microplate, PerkinElmer), wrapped in the aluminum foil, and allowed to equilibrate 6 hours at room temperature followed by overnight incubation at +4° C. Radiocounts were measured using a TopCount NXT counter (Packard Instrument Company).\nThe compounds listed below were tested in two in vitro assays, RBP4 binding (SPA) and retinol-dependent RBP4-TTR interaction (HTRF) (Table 1)."}, "CYP2C19": {"molecular_target": "CYP2C19 (Homo sapiens (Human), UniProt P33261)", "sequence (P33261 whole entry, species assumed)": "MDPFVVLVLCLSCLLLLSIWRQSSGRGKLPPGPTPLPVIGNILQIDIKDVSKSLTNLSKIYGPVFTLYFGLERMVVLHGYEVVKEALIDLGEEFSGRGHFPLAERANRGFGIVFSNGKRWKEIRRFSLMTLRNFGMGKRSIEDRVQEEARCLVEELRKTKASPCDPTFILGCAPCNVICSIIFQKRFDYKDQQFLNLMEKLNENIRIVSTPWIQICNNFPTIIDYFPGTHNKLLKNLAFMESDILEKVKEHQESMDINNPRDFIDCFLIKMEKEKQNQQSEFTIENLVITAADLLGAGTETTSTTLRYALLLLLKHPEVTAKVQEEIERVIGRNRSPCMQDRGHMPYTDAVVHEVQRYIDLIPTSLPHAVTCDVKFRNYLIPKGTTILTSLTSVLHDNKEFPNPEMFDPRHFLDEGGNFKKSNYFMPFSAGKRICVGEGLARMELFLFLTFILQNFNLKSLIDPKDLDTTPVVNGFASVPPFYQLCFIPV", "test": "CYP inhibition, fluorescent, CYP2C19", "format": "in vitro ADME", "description": "The compounds listed below were tested in various metabolic stability and CYP inhibition assays."}, "A2E": {"tested_on": "A2E", "test": "A2E (bisretinoid) accumulation in eyes of Abca4−/− mice, HPLC of eyecups", "format": "in vivo", "settings": "35 mg/kg daily oral in chow, 8 weeks, p=0.0007", "description": "Effect of 7a on accumulation of N-retinylidene-N-retinylethanolamine (A2E) in Eyes of the Abca4^−/− Mice\nAnimal protocols were approved by the Institutional Animal Care and Use Committee of Columbia University and complied with guidelines set forth by The Association for Research in Vision and Ophthalmology. […] Abca4^−/− (knockout) and C57BL/6J (wild-type control) mice were raised under 12 h on-off cyclic lighting with an in-cage illuminance of 30-50 lux. For long-term oral dosing 7a was formulated into Purina 5035 rodent chow at Research Diets, Inc. (New Brunswick, NJ) to ensure consistent 35 mg/kg daily oral dosing. Animals were administered the AKR-XI-85-containing chow for 8 weeks. […] Serum RBP4 was measured using the RBP4 (mouse/rat) dual ELISA kit (AdipoGen) following the manufacturer's instructions.\nAfter the completion of dosing, animals were euthanized and posterior eyecups consisting of sclera, choroid and RPE were prepared from enucleated eyes according to the standard techniques. […] A previously established HPLC method (Journal of Biological Chemistry, 275, 29354-29360) was utilized for quantifying A2E in mouse eyecups. Quantitation of A2E was conducted by manually integrating the A2E peak (approximately 12-min elution time) which was identified by the co-elution with the synthetic A2E standard and by characteristic absorbance spectrum. […]"}}, "note": "pIC50: −log10 of the molar value."}
{"smiles": "O=C(c1nc2ncccn2n1)N1C[C@H]2C[C@@H](c3ccccc3C(F)(F)F)C[C@H]2C1", "note": "[Compound 7a]", "values": [{"measurement": "pIC50", "setting": "human RBP4", "value": 7.64}, {"measurement": "pIC50", "setting": "CYP2C19", "value": "< 4.70"}, {"measurement": "A2E reduction vs control chow-treated Abca4−/− animals", "setting": "A2E", "value": 69, "unit": "%"}]}
